One assay deals with T1, BRAF G466V (Homo sapiens, UniProt P15056, G466V).
T1 construct: expressed in transfected cells
Nature of the assay: Cellular assay of target protein degradation, T-Rex 293 cells stably transfected with HA-BRAF G466V (HA immunofluorescence, high content imaging). It counts as cell-based. As to conditions: T-Rex 293 HA-BRAF G466V; for DC50: half maximal degradation, read-out: BRaf G466V DC50; for Dmax: maximum degradation observed. An outline of the steps:
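Cells expressing doxycycline-induced (0.75 ng/mL) HA-BRAF G466V were treated with compound at 30 nM to 3 pM in 0.1% DMSO for 24 hours at 37° C. After fixation and permeabilization, HA was immunostained and quantified by high content imaging to derive DC50 and Dmax.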

The target of another assay is T2, BRAF V600E (Homo sapiens, UniProt P15056, V600E).
T2 construct: expressed in transfected cells
T2 sequence (P15056 whole entry V600E): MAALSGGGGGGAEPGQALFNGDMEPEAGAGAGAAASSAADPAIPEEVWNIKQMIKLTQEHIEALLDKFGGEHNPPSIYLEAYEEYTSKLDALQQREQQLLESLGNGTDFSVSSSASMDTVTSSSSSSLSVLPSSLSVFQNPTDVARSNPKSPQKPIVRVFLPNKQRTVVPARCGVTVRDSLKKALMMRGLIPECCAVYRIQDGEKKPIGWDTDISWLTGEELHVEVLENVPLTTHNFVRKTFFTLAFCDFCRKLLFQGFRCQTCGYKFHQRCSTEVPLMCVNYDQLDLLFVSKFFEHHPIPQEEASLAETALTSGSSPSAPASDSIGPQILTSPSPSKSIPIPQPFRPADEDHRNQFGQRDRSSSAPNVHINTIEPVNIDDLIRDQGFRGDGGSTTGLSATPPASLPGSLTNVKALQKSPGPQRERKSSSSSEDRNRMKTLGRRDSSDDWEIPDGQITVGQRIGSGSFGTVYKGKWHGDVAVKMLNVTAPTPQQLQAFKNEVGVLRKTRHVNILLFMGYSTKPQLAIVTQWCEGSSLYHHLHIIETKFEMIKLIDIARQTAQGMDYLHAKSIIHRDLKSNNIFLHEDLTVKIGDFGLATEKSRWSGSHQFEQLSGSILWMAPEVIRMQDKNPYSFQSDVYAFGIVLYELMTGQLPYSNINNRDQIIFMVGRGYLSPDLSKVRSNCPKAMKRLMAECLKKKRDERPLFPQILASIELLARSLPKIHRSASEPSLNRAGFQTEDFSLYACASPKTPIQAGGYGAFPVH
Nature of the assay: Cellular assay of target protein degradation, T-Rex 293 cells stably transfected with HA-BRAF_V600E (HA immunofluorescence, high content imaging). It counts as cell-based. As to conditions: T-Rex 293 HA-BRAF V600E; for DC50: half maximal degradation, read-out: BRaf V600E DC50; for Dmax: maximum degradation observed. An outline of the steps:
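Doxycycline-induced (1 ng/mL) cells were treated 24 h at 37 °C with compound at 1 μM to 0.1 nM final in 0.1% DMSO. After fixation, permeabilization and blocking, anti-HA staining was imaged by high-content reading; DC50 and Dmax (% of control) were derived.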

T1 sequence (P15056 whole entry G466V): as the sequence (P15056 whole entry V600E) above, with G466V, E600V counted along it

What is called DC50 is the midpoint of the concentration-degradation curve. One may read the Dmax as the greatest extent of degradation seen. A higher Dmax goes with a fuller loss of target. Consider `O=C1CCC(N2Cc3cc(C4CCN(CC5CC6(C5)CN(c5ccc(-c7cnc8[nH]cc(C(=O)c9c(F)ccc(NS(=O)(=O)N%10CC[C@@H](F)C%10)c9F)c8c7)cn5)C6)CC4)ccc3C2=O)C(=O)N1` (stereo partly drawn) [Compound 103, (3R)-N-[3-(5-{6-[6-({4-[2-(2,6-dioxopiperidin-3-yl)-1-oxo-2,3-dihydro-1H-isoindol-5-yl]piperidin-1-yl}methyl)-2-azaspiro [3.3]heptan-2-yl]pyridin-3-yl}-1H-pyrrolo[2,3-b]pyridine-3-carbonyl)-2,4-difluorophenyl]-3-fluoropyrrolidine-1-sulfonamide], for which, on BRAF G466V, the half-maximal degradation concentration (DC50) was 1 to 10 nM and the Dmax is more than 70%. Also, on BRAF V600E, the DC50 was 5 to 50 nM and the maximal degradation (Dmax) lay in the range of 35 to 70%.

Consider `O=C1CCC(N2Cc3cc(N4CCC(CN5CCC6(CCN(c7ccc(-c8cnc9[nH]cc(C(=O)c%10c(F)ccc(NS(=O)(=O)N%11CC[C@@H](F)C%11)c%10F)c9c8)cc7F)CC6)C5)CC4)ccc3C2=O)C(=O)N1` (stereo partly drawn) [Compound 104, (3R)-N-[3-(5-{4-[2-({1-[2-(2,6-dioxopiperidin-3-yl)-1-oxo-2,3-dihydro-1H-isoindol-5-yl]piperidin-4-yl}methyl)-2,8-diazaspiro [4.5]decan-8-yl]-3-fluorophenyl}-1H-pyrrolo [2,3-b]pyridine-3-carbonyl)-2,4-difluorophenyl]-3-fluoropyrrolidine-1-sulfonamide], for which the values for the DC50 at BRAF G466V and on BRAF V600E were 1 to 10 nM and less than 5 nM, respectively. In addition, the Dmax on BRAF G466V is more than 70%; on BRAF V600E, less than 35%.

For the compound `O=C1CC[C@H](N2Cc3cc([C@H](O)CCN4CC5(C4)CN(c4ccc(-c6cnc7[nH]cc(C(=O)c8c(F)ccc(NS(=O)(=O)N9CC[C@@H](F)C9)c8F)c7c6)cc4)C5)ccc3C2=O)C(=O)N1` [Compound 105, (3R)—N-[3-[5-[4-[6-[(3R)-3-[2-[(3S)-2,6-dioxo-3-piperidyl]-1-oxo-isoindolin-5-yl]-3-hydroxy-propyl]-2,6-diazaspiro[3.3]heptan-2-yl]phenyl]-1H-pyrrolo[2,3-b]pyridine-3-carbonyl]-2,4-difluoro-phenyl]-3-fluoro-pyrrolidine-1-sulfonamide], on BRAF G466V, the DC50 was in the range of 1 to 10 nM and the Dmax was 35 to 70%. Besides, at BRAF V600E, the DC50 was 5 to 50 nM and the Dmax fell in the range of 35 to 70%.

For the compound `O=C1CC[C@H](N2Cc3cc([C@@H](O)CCN4CC5(C4)CN(c4ccc(-c6cnc7[nH]cc(C(=O)c8c(F)ccc(NS(=O)(=O)N9CC[C@@H](F)C9)c8F)c7c6)cc4)C5)ccc3C2=O)C(=O)N1` [Compound 106, (3R)-N-{3-[5-(4-{6-[(3S)-3-{2-[(3S)-2,6-dioxopiperidin-3-yl]-1-oxo-2,3-dihydro-1H-isoindol-5-yl}-3-hydroxypropyl]-2,6-diazaspiro[3.3]heptan-2-yl}phenyl)-1H-pyrrolo[2,3-b]pyridine-3-carbonyl]-2,4-difluorophenyl}-3-fluoropyrrolidine-1-sulfonamide], on BRAF G466V, the DC50 fell in the range of 1 to 10 nM and the Dmax is more than 70%. In addition, on BRAF V600E, the DC50 was in the range of 5 to 50 nM and the maximal degradation (Dmax) fell in the range of 35 to 70%.

`O=C1CC[C@H](N2Cc3cc(C[C@@H](O)CN4CCC(c5ccc(-c6cnc7[nH]cc(C(=O)c8c(F)ccc(NS(=O)(=O)N9CC[C@@H](F)C9)c8F)c7c6)cc5)CC4)ccc3C2=O)C(=O)N1` [Compound 107]: on BRAF G466V, the DC50 was in the range of 1 to 10 nM and the Dmax was in the range of 35 to 70%. At BRAF V600E, the half-maximal degradation concentration (DC50) fell in the range of 5 to 50 nM and the Dmax fell in the range of 35 to 70%.

For the compound `O=C1CC[C@@H](N2Cc3cc(C[C@@H](O)CN4CCC(c5ccc(-c6cnc7[nH]cc(C(=O)c8c(F)ccc(NS(=O)(=O)N9CC[C@@H](F)C9)c8F)c7c6)cc5)CC4)ccc3C2=O)C(=O)N1` [Compound 108, (3R)-N-{3-[5-(4-{1-[(2R)-3-{2-[(3R)-2,6-dioxopiperidin-3-yl]-1-oxo-2,3-dihydro-1H-isoindol-5-yl}-2-hydroxypropyl]piperidin-4-yl}phenyl)-1H-pyrrolo[2,3-b]pyridine-3-carbonyl]-2,4-difluorophenyl}-3-fluoropyrrolidine-1-sulfonamide], on BRAF G466V, the DC50 fell in the range of 1 to 10 nM and the Dmax is more than 70%. Besides, on BRAF V600E, the DC50 is 5 to 50 nM and the Dmax was in the range of 35 to 70%.

For `O=C1CC[C@H](N2Cc3cc(C[C@H](O)CN4CCC(c5ccc(-c6cnc7[nH]cc(C(=O)c8c(F)ccc(NS(=O)(=O)N9CC[C@@H](F)C9)c8F)c7c6)cc5)CC4)ccc3C2=O)C(=O)N1` [Compound 109, (3R)-N-{3-[5-(4-{1-[(2S)-3-{2-[(3S)-2,6-dioxopiperidin-3-yl]-1-oxo-2,3-dihydro-1H-isoindol-5-yl}-2-hydroxypropyl]piperidin-4-yl}phenyl)-1H-pyrrolo[2,3-b]pyridine-3-carbonyl]-2,4-difluorophenyl}-3-fluoropyrrolidine-1-sulfonamide], at BRAF G466V, the DC50 lay in the range of 1 to 10 nM and the Dmax is more than 70%. On BRAF V600E, the half-maximal degradation concentration (DC50) was in the range of 5 to 50 nM and the Dmax fell in the range of 35 to 70%.

On to `O=C1CCC(N2Cc3cc(C4CCN(C[C@H](O)Cc5ccc(-c6cnc7[nH]cc(C(=O)c8c(F)ccc(NS(=O)(=O)N9CC[C@@H](F)C9)c8F)c7c6)cc5)CC4)ccc3C2=O)C(=O)N1` (stereo partly drawn) [Compound 110, (3R)-N-[3-(5-{4-[(2R)-3-{4-[2-(2,6-dioxopiperidin-3-yl)-1-oxo-2,3-dihydro-1H-isoindol-5-yl]piperidin-1-yl}-2-hydroxypropyl]phenyl}-1H-pyrrolo[2,3-b]pyridine-3-carbonyl)-2,4-difluorophenyl]-3-fluoropyrrolidine-1-sulfonamide], for which, on BRAF G466V, the DC50 is 1 to 10 nM and the Dmax is more than 70%. Also, on BRAF V600E, the DC50 was 50 to 500 nM and the Dmax is 35 to 70%.

On to `O=C1CCC(N2Cc3cc(N4CCC(CN5CC6(CCN(c7ccc(-c8cnc9[nH]cc(C(=O)c%10c(F)ccc(NS(=O)(=O)N%11CC[C@@H](F)C%11)c%10F)c9c8)cc7F)C6)C5)CC4)ccc3C2=O)C(=O)N1` (stereo partly drawn) [Compound 111, (3R)-N-[3-(5-{4-[2-({1-[2-(2,6-dioxopiperidin-3-yl)-1-oxo-2,3-dihydro-1H-isoindol-5-yl]piperidin-4-yl}methyl) 2,6-diazaspiro[3.4]octan-6-yl]-3-fluorophenyl}-1H-pyrrolo[2,3-b]pyridine-3-carbonyl)-2,4-difluorophenyl]-3-fluoropyrrolidine-1-sulfonamide], for which, on BRAF G466V, the DC50 lay in the range of 1 to 10 nM and the Dmax was 35 to 70%. On BRAF V600E, the DC50 was less than 5 nM and the Dmax fell in the range of 35 to 70%.

As for `O=C1CCC(N2Cc3cc(CN4CCN(c5ccc(-c6cnc7[nH]cc(C(=O)c8c(F)ccc(NS(=O)(=O)N9CC[C@@H](F)C9)c8F)c7c6)cc5)C[C@H]4CO)ccc3C2=O)C(=O)N1` (stereo partly drawn) [Compound 112, (3R)-N-[3-(5-{4-[(3S)-4-{[2-(2,6-dioxopiperidin-3-yl)-1-oxo-2,3-dihydro-1H-isoindol-5-yl]methyl}-3-(hydroxymethyl)piperazin-1-yl]phenyl}-1H-pyrrolo [2,3-b]pyridine-3-carbonyl)-2,4-difluorophenyl]-3-fluoropyrrolidine-1-sulfonamide], the results for the DC50 at BRAF G466V and on BRAF V600E were 10 to 30 nM and 50 to 500 nM, respectively. In addition, the Dmax at BRAF G466V is 35 to 70%; at BRAF V600E, less than 35%.

As to `O=C1CCC(N2Cc3cc(OCCCCN4CCN(c5ccc(-c6cnc7[nH]cc(C(=O)c8c(F)ccc(NS(=O)(=O)N9CC[C@@H](F)C9)c8F)c7c6)cc5F)CC4)ccc3C2=O)C(=O)N1` (stereo partly drawn) [Compound 113, (3R)-N-[3-(5-{4-[4-(4-{[2-(2,6-dioxopiperidin-3-yl)-1-oxo-2,3-dihydro-1H-isoindol-5-yl]oxy}butyl)piperazin-1-yl]-3-fluorophenyl}-1H-pyrrolo[2,3-b]pyridine-3-carbonyl)-2,4-difluorophenyl]-3-fluoropyrrolidine-1-sulfonamide], at BRAF G466V, the 50% degradation concentration (DC50) is 1 to 10 nM and the Dmax is more than 70%. Besides, at BRAF V600E, the DC50 was 5 to 50 nM and the maximal degradation (Dmax) fell in the range of 35 to 70%.

With `O=C1CCC(N2Cc3cc(N4CC5(CN(CCOc6ccc(-c7cnc8[nH]cc(C(=O)c9c(F)ccc(NS(=O)(=O)N%10CC[C@@H](F)C%10)c9F)c8c7)cc6F)C5)C4)ccc3C2=O)C(=O)N1` (stereo partly drawn) [Compound 114, (3R)-N-(3-{5-[4-(2-{6-[2-(2,6-dioxopiperidin-3-yl)-1-oxo-2,3-dihydro-1H-isoindol-5-yl]-2,6-diazaspiro[3.3]heptan-2-yl}ethoxy)-3-fluorophenyl]-1H-pyrrolo[2,3-b]pyridine-3-carbonyl}-2,4-difluorophenyl)-3-fluoropyrrolidine-1-sulfonamide], on BRAF G466V, the DC50 lay in the range of 1 to 10 nM and the Dmax was more than 70%. Also, at BRAF V600E, the DC50 lay within 5 to 50 nM and the greatest degradation seen (Dmax) is 35 to 70%.

Consider `O=C1CCC(N2Cc3cc(N4CCN(c5cc(N6CCN(c7ccc(-c8cnc9[nH]cc(C(=O)c%10c(F)ccc(NS(=O)(=O)N%11CC[C@@H](F)C%11)c%10F)c9c8)cc7)CC6)ncn5)CC4)ccc3C2=O)C(=O)N1` (stereo partly drawn) [Compound 115, (3R)-N-[3-(5-{4-[4-(6-{4-[2-(2,6-dioxopiperidin-3-yl)-1-oxo-2,3-dihydro-1H-isoindol-5-yl]piperazin-1-yl}pyrimidin-4-yl)piperazin-1-yl]phenyl}-1H-pyrrolo[2,3-b]pyridine-3-carbonyl)-2,4-difluorophenyl]-3-fluoropyrrolidine-1-sulfonamide], for which, at BRAF G466V, the DC50 is 1 to 10 nM and the greatest degradation seen (Dmax) was 35 to 70%. On BRAF V600E, the half-maximal degradation concentration (DC50) was 5 to 50 nM and the Dmax is less than 35%.

The values are drawn from patent US12180193B2, “Accelerating fibrosarcoma protein degrading compounds and associated methods of use” (Arvinas Operations, Inc., priority 2020, dated 2024).
